Experimental data published in US3950427A, “Araliphatic ketones and carbinols” (Boehringer Ingelheim GmbH, priority 1973, dated 1976).
Like-named read-outs stand apart in the source and are kept apart here.

Tests used:
Format in all cases: in vivo, rat (male FW 49)
[1] = tested on: Kaolin edema and carrageenin edema of the hind paw of the rat; assay: Average value of kaolin edema and carrageenin edema; settings: per os, Table I; for ED35: Rattus norvegicus
Description: (§1) The compunds were tested for their anti-exudative effect on Kaolin-induced edema and carrageenin-induced edema in the hind paw of the rat after oral administration to the rat.
(§2) The kaolin edema was induced according to the method given by Hillebrecht [Arzneimittel-Forsch. 4, 607 (1954)] by subplanar injection of 0.05 ml of a 10% suspension of kaolin in a 0.85% sodium chloride solution. Measurement of the thickness of the paws was effected using the technique of Doepfner and Cerletti [Int. Arch. Allergy Immunol. 12, 89 (1958)].
(§3) The test compound was administered orally to male FW 49 rats weighing 120-150 gm by means of an esophageal tube 30 minutes before inducing the edema. 5 hours after inducing the edema the average size of the swelling in the rats treated with the test compound was compared with the size of the swelling in blind-treated control animals. By graphic extrapolation the dose leading to a 35% of the swelling (ED35) was calculated from the percentage reduction in the size of the swelling caused by the administration of different doses.
(§4) The carrageenin edema was induced according to the method of Winder et al. [Proc. Soc. exp. Biol. Med. 111, 544 (1962)] by subplanar injection of 0.05 ml of a 1% solution of carrageenin in a 0.85% solution of sodium chloride. The test compound was administered 60 minutes before the provocation of the edema.
(§5) For the calculation of the reductive effect on the edema, the size of the swelling was measured 3 hours after the provocation of the edema. All other details were the same as described above in the case of the kaolin edema.

[2] = tested on: Carrageenin-induced edema of the hind paw of the rat; assay: Carrageenin-induced edema of the hind paw of the rat (anti-exudative effect); settings: 60 minutes before provocation, swelling 3 hours after; for ED35: Rattus norvegicus, po, 3 h, read-out: Carrageenin edema ED35 per os; for Carrageenin edema ED35 per os: oral
Description: as §1, §3
b. Carrageenin-induced edema of the hind paw of the rat
as §4, §5

[3] = tested on: Kaolin-induced edema of the hind paw of the rat; assay: Kaolin-induced edema of the hind paw of the rat (anti-exudative effect); settings: 30 minutes before inducing edema, swelling 5 hours after; for ED35: Rattus norvegicus, po, 5 h, read-out: Kaolin edema ED35 per os; for Kaolin edema ED35 per os: oral
Description: as §1
a. Kaolin-induced edema of the hind paw of the rat
as §2, §3

Adjuvant arthritis-rat = assay: Adjuvant arthritis test on rats (M.butyricum); settings: po, 504 h, 21st day, once daily for 20 days by esophageal tube
Description: The adjuvant arthritis tests on rats were performed in analogy to the procedure described by Rosenthale and Nagra [Proc. Soc. exp. Biol. Med. 125, 149 (1967)].
Male FW 49-rats were given a subplantar injection of 0.1 ml of a 1% suspension of M.butyricum in viscous paraffin oil in a hind paw. The test compound was administered, beginning with the M.butyricum injection, once daily for 20 days by esophageal tube.
On the 21st day after inducing the arthritis, the volumes of the right paw (non-specific primary reaction at the place of injection) and the left paw (immunologically predicated specific secondary reaction) of the animals treated with the test compound were compared with those of the blind-treated control animals. From the swelling reduction obtained with the various doses, an ED50 was graphically determined.

[4] = left paw volume, read-out: Adjuvant arthritis-rat ED50 per os, Secondary reaction
[5] = right paw volume, read-out: Adjuvant arthritis-rat ED50 per os, Primary reaction

Compound | ED35 [1] [mg/kg] | ED35 ([2]; Table I) [mg/kg] | ED35 ([3]; Table I) [mg/kg] | also measured
CC(=O)/C=C(\C)c1ccc([C@@H]2CCCC[C@H]2C)cc1 (relative stereo) [BB, (e,e)-4-[4-(2-methyl-cyclohexyl)-phenyl]-3-pentene-2-one] | 16 | 13 | 19 | 
CC(O)/C=C/c1ccc(-c2ccccc2)c(F)c1 (centres unmarked) [A, (e)-4-(2-fluoro-4-biphenylyl)-3-butene-2-ol] | 13.7 | 12.4 | 15 | 
CC(O)CC(C)c1ccc(C2CCCCC2)c(Br)c1 (centres unmarked) [AA, 4-(3-bromo-4-cyclohexyl-phenyl)-2-pentanol] | 23.2 | 18.5 | 28 | 
CC(O)CCc1ccc(-c2ccccc2)c(F)c1 (centres unmarked) [B, 4-(2-fluoro-4-biphenylyl)-2-butanol] | 14 | 12 | 16 | 
CC(O)CCCCCCc1ccc(-c2ccccc2F)cc1 (centres unmarked) [C, 8-(2'-fluoro-4-biphenylyl)-2-octanol] | 16 | 17 | 15 | 
CC(=O)CC(C)c1ccc(C2CCCCC2C)cc1 (centres unmarked) [CC, (e)-4-[4-(2-methyl-cyclohexyl)-phenyl]-2-pentanone] | 25 | 21 | 29 | 
CC(=O)CCCCc1ccc(-c2ccccc2F)cc1 [D, 6-(2'-fluoro-4-biphenylyl)-2-hexanone] | 9.75 | 10.5 | 9 | 
CC(=O)/C=C(\C)c1ccc(CC(C)C)c(Cl)c1 [DD, (e)-4-(3-chloro-4-isobutyl-phenyl)-3-pentene-2-one] | 34.5 | 19 | 50 | 
CC(=O)CC(C)c1ccc(-c2ccccc2)cc1 (centres unmarked) [E, 4-(4-biphenylyl)-2-pentanone] | 18 | 15 | 21 | ED50 (Adjuvant arthritis-rat; [4]): < 4 mg/kg; ED50 (Adjuvant arthritis-rat; [5]): < 4 mg/kg; ED35 ([2]; Table II): 15 mg/kg; ED35 ([3]; Table II): 21 mg/kg
C/C(=C\C(C)O)c1ccc(CC(C)C)c(Cl)c1 (centres unmarked) [EE, (e)-4-(3-chloro-4-isobutyl-phenyl)-3-pentane-2-ol] | 53 | 52 | 54 | 
CC(=O)CCCCCCc1ccc(-c2ccccc2F)cc1 [F, 8-(2'-fluoro-4-biphenylyl)-2-octanone] | 12.2 | 14.5 | 9.8 | 
C/C(=C\C(C)O)c1ccc(C2CCCCC2)cc1 (centres unmarked) [FF, (e)-4-(4-cyclohexyl-phenyl)-3-pentene-2-ol] |  |  |  | Average value ED35 [1]: 42 mgm/kg; Carrageenin edema ED35 per os ([2]; Table I): 35 mgm/kg; Kaolin edema ED35 per os ([3]; Table I): 49 mgm/kg
CC(=O)/C=C(\C)c1ccc(-c2ccccc2)cc1 [G, (e)-4-(4-biphenylyl)-3-pentene-2-one] | 16.1 | 8.6 | 23.5 | 
CC(=O)/C=C(\C)c1ccc(-c2ccccc2F)cc1 [H, (e)-4-(2'-fluoro-4-biphenylyl)-3-pentene-2-one] | 22.9 | 8.9 | 37 | ED50 (Adjuvant arthritis-rat; [4]): < 1 mg/kg; ED50 (Adjuvant arthritis-rat; [5]): < 2 mg/kg; ED35 ([2]; Table II): 11 mg/kg; ED35 ([3]; Table II): 37 mg/kg
CC(O)CC(C)c1ccc(-c2ccccc2)c(F)c1 (centres unmarked) [I, 4-(2-fluoro-4-biphenylyl)-2-pentanol] | 16.8 | 16.5 | 17 | 
C/C(=C\C(C)O)c1ccc(-c2ccccc2F)cc1 (centres unmarked) [K, (e)-4-(2'-fluoro-4-biphenylyl)-3-pentene-2-ol] | 15.2 | 12.8 | 17.5 | ED50 (Adjuvant arthritis-rat; [4]): < 2 mg/kg; ED50 (Adjuvant arthritis-rat; [5]): < 1.5 mg/kg; ED35 ([2]; Table II): 17 mg/kg; ED35 ([3]; Table II): 17.5 mg/kg

Compound | ED35 [1] [mg/kg] | ED35 ([2]; Table I) [mg/kg] | ED35 ([3]; Table I) [mg/kg] | also measured
CC(=O)/C=C(\C)c1ccc(-c2ccccc2)c(Cl)c1 [L, (e)-4-(2-chloro-4-biphenylyl)-3-pentene-2-one] | 10.6 | 5.6 | 15.5 | 
C/C(=C\C(C)O)c1ccc(-c2ccccc2)c(Cl)c1 (centres unmarked) [M, (e)-4-(2-chloro-4-biphenylyl)-3-pentene-2-ol] | 24.5 | 23 | 26 | 
CC(=O)CC(C)c1ccc(-c2ccccc2)c(Cl)c1 (centres unmarked) [N, 4-(2-chloro-4-biphenylyl)-2-pentanone] | 24 | 16.5 | 31.5 | 
CC(O)CC(C)c1ccc(-c2ccccc2)c(Cl)c1 (centres unmarked) [O, 4(2-chloro-4-biphenylyl)-2-pentanol] |  |  | 48 | 
CC(=O)/C=C(\C)c1ccc(C2CCCCC2)c(Cl)c1 [P, (e)-4-(3-chloro-4-cyclohexyl-phenyl)-3-pentene-2-one] | 12.8 | 8.6 | 17 | ED50 (Adjuvant arthritis-rat; [4]): < 0.6 mg/kg; ED50 (Adjuvant arthritis-rat; [5]): < 0.7 mg/kg; ED35 ([2]; Table II): 8.6 mg/kg; ED35 ([3]; Table II): 17 mg/kg
CC(=O)CC(C)c1ccc(C2CCCCC2)c(Cl)c1 (centres unmarked) [Q, 4-(3-chloro-4-cyclohexyl-phenyl)-2-pentanone] | 3.75 | 2.5 | 5 | ED50 (Adjuvant arthritis-rat; [4]): < 0.2 mg/kg; ED50 (Adjuvant arthritis-rat; [5]): < 0.4 mg/kg; ED35 ([2]; Table II): 2.5 mg/kg; ED35 ([3]; Table II): 5 mg/kg
C/C(=C\C(C)O)c1ccc(C2CCCCC2)c(Cl)c1 (centres unmarked) [R, (e)-4-(3-chloro-4-cyclohexyl-phenyl)-3-pentene-2-ol] | 3.95 | 3.1 | 4.8 | ED50 (Adjuvant arthritis-rat; [4]): < 0.7 mg/kg; ED50 (Adjuvant arthritis-rat; [5]): < 0.3 mg/kg; ED35 ([2]; Table II): 3.1 mg/kg; ED35 ([3]; Table II): 4.8 mg/kg
CC(O)CC(C)c1ccc(C2CCCCC2)c(Cl)c1 (centres unmarked) [S, 4-(3-chloro-4-cyclohexyl-phenyl)-2-pentanol] | 7.3 | 7 | 7.6 | 
CC(=O)/C=C(\C)c1ccc(C2CCCCC2)cc1 [T, (e)-4-(4-cyclohexyl-phenyl)-3-pentene-2one] | 12.2 | 12 | 12.5 | 
CC(=O)CC(C)c1ccc(C2CCCCC2)cc1 (centres unmarked) [U, 4-(4-cyclohexyl-phenyl)-2-pentanone] |  |  | 15 | 
C/C(=C\C(C)O)c1ccc(C2CCCCC2)cc1 (centres unmarked) [V, (e)-4-(4-cyclohexyl-phenyl)-3-pentene-2-ol] |  |  |  | Average value ED35 [1]: 10.45 mgm/kg; Carrageenin edema ED35 per os ([2]; Table I): 7.6 mgm/kg; Kaolin edema ED35 per os ([3]; Table I): 13.3 mgm/kg
CC(O)CC(C)c1ccc(C2CCCCC2)cc1 (centres unmarked) [W, 4-(4-cyclohexyl-phenyl)-2-pentanol] |  |  | 26 | 
CC(=O)/C=C(\C)c1ccc(C2CCCCC2)c(Br)c1 [X, (e)-4-(3-bromo-4-cyclohexyl-phenyl)-3-pentene-2-one] | 22 | 22 | 22 | 
CC(=O)CC(C)c1ccc(C2CCCCC2)c(Br)c1 (centres unmarked) [Y, 4-(3-bromo-4-cyclohexyl-phenyl)-2-pentanone] |  |  | 13 | 
C/C(=C\C(C)O)c1ccc(C2CCCCC2)c(Br)c1 (centres unmarked) [Z, (e)-4-(3-bromo-4-cyclohexyl-phenyl)-3-pentene-2-ol] |  |  | 16 | 
